molecular target: T1, GenK (Corynebacterium glutamicum, UniProt Q8NLB7); assay: inhibition of […]-gentisate uptake in RES167 cells; format: cell-based
T1 construct: full-length, native gene in intact C. glutamicum RES167 cells; mutants expressed from pXMJ19 in RES167 delta-genK; untagged as far as told; 12 predicted transmembrane helices
T1 sequence (Q8NLB7 whole entry): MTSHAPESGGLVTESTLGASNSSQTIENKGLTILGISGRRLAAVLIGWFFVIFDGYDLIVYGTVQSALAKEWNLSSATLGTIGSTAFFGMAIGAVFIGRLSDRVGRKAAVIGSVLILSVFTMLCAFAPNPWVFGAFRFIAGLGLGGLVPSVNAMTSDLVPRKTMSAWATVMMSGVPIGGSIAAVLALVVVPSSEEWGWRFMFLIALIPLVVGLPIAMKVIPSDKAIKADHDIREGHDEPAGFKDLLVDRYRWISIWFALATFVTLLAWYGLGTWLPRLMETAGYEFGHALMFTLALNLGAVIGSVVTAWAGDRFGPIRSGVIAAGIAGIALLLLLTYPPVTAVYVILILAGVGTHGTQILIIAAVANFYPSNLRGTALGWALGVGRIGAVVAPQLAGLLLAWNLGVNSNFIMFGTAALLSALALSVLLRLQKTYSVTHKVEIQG

| Structure (SMILES) | inhibition at 800 µM |
| --- | --- |
| O=C(O)c1cccc(O)c1 [3-hydroxybenzoate] | 94% |
| O=C(O)c1ccccc1 [benzoate] | 40 to 60% |
| Oc1ccccc1O [catechol] | 40 to 60% |
| O=C(O)c1ccc(O)c(O)c1 [protocatechuate] | 40 to 60% |

— article PMC3392265 (PLoS ONE, 2012)
